How the values were obtained:
[1] = biological target: T1, mPIEZO1 (Mus musculus, UniProt E2JF22); assay: Automated patch clamp (SyncroPatch 384) on mPIEZO1-TREx cells; type: cell-based; conditions: for Effect on M-Stim-evoked currents: mPIEZO1-TREx cells, −80 mV; for Cells responding to activation: mPIEZO1-TREx, 10 μM KC157, 10 μM Yoda1, 5 μM KC159
T1 construct: expressed in transfected cells
Method: For automated patch clamp, cells were cultured and harvested according to Nanion's standard cell culture protocol (Obergrussberger et al., [2014]). hPIEZO1‐TREx cells were induced to express PIEZO1 by incubation with 0.5 μg·ml^−1 tetracycline 24 h prior to experiments. Whole‐cell patch‐clamp recordings were conducted on HEK‐TREx, hPIEZO1‐TREx and mPIEZO1‐TREx cells according to Nanion's standard procedure for the SyncroPatch 384, using medium resistance (4–5 MΩ) chips (Obergrussberger et al., [2018]). Cells were held at −80 mV for the duration of the experiment. The channel was activated by mechanical forces in the absence and presence of the agonists. To stimulate PIEZO1 channels mechanically (mechanical stimulation [M‐Stim]), we dispensed 20 μl of solution (either reference or agonist) locally to the cell at a pipetting speed of 110 μl·s^−1 in synchrony with a triggered recording of the current response at the holding potential. The internal solution contained 110 mM KF, 10 mM KCl, 10 mM NaCl, 10 mM HEPES and 10 mM EGTA, pH adjusted to 7.2 with KOH, and the external solution contained 140 mM NaCl, 4 mM KCl, 2 mM CaCl2, 1 mM MgCl2, 5 mM glucose, 10 mM HEPES, pH adjusted to 7.4 with NaOH, and 0.1% DMSO to match the DMSO concentration of the compound solutions. For PIEZO1 stimulation, KC159, KC157 or Yoda1 was applied directly onto the cells via a pipette application. One chip of the SyncroPatch 384 is equipped with 384 wells served by 384 robotic pipettes and connected to 384 individual amplifiers, allowing us to test 384 distinct cells in one experiment. We tested the effect of each specified analogue on mPIEZO1‐, hPIEZO1‐ and untransfected HEK‐TREx cells in parallel and in comparison to mechanical and Yoda1 stimulation. To estimate the EC50 values, four concentrations of each agonist were tested per cell line in one chip, with each cell receiving single concentrations, and the concentration–response curve was calculated across the whole chip (384 cells). Only cells with seal resistance >0.3 GΩ, series resistance <20 MΩ and cell capacitance >5 and <40 pF were used for analysis.
DataControl 384 (Nanion Technologies GmbH), Prism 9 (GraphPad) and OriginPro 2020 (OriginLab) were used for all analysis of automated patch‐clamp data. For manual and automated patch‐clamp data, n represents the number of cells recorded from successfully in each experimental condition, sampled from two to six batches of cells or 384‐well chips in automated patch clamp. For manual patch‐clamp experiments, each cell/patch recording (n) is considered as an independent experiment because each was made independently at a separate time, using a separate coverslip of cells and using a separate patch pipette. In some instances, more than one such independent recording was made from the same batch of cultured or transfected cells. These n values are considered as independent. Each cell was studied alone and from a separate coverslip in the case for manual patch clamp. To estimate the EC50 values of the agonists in automated patch‐clamp studies, the peak current in the presence of the agonist was normalised to the peak current in the presence of the reference solution. Single‐point concentration–response curves were fitted with a standard Hill equation to estimate EC50 values. P < 0.05 was deemed significant. For automated patch‐clamp experiments, we included some data for n < 5 (Figure 7a,b). […] Such replicates are a feature of, and a rationale for, this automated technology, which is an innovation for the type of research shown here but already commonly used in the pharmaceutical industry for other ion channel studies to increase throughput and avoid waste from large volumes of independent cell cultures and minimise cost from expensive specially engineered plates. As a general strategy, our study used multiple independent technical approaches to address the same or similar questions. […]

[2] = biological target: T2, mPIEZO2 (Mus musculus, UniProt Q8CD54); assay: Intracellular Ca2+ measurement in HEK 293 cells overexpressing mPIEZO2; type: cell-based; conditions: 10 μM, versus non-transfected cells
T2 construct: host or cells: HEK 293, transient
Method: mPIEZO2 pCMV‐Sport6 was a gift from Ardem Patapoutian (Coste et al., [2015]), obtained via Addgene (Addgene plasmid #81073; http://n2t.net/addgene:81073; RRID:Addgene_81073). It was sequenced for validation. Transient transfection of the plasmid was achieved using Lipofectamine 3000 in HEK 293 cells, 48 h prior to measurements being made.
HEK 293‐TREx cells and their stably transfected derivatives or transiently transfected HEK 293 or HeLa cells were seeded at a density of 7.5 × 10^4 cells per well into poly‐D‐lysine‐coated 96‐well plates. The plates were either commercially pre‐coated with poly‐D‐lysine (Greiner Bio‐One #655946) or (Greiner Bio‐One #655090) were coated in‐house with 35 μl of a 10 μg·ml^−1 poly‐D‐lysine (Bio‐Techne, Cultrex # 3439‐100‐01) in sterile deionised water per well for at least 24 h and rinsed three times with 100 μl per well sterile D‐PBS before addition of cells. HUVECs were seeded into tissue culture‐treated 96‐well plates (Greiner Bio‐One #655090) at a density of either 2.5 × 10^4 cells 24 h before experimentation or 1.25 × 10^4 cells 48 h before experimentation. […] Measurements were made at room temperature on a 96‐well fluorescence plate reader (FlexStation 3, Molecular Devices, Sunnyvale, CA, USA) controlled by SoftMax Pro software v7.0.3. […]

T1 sequence (E2JF22 whole entry): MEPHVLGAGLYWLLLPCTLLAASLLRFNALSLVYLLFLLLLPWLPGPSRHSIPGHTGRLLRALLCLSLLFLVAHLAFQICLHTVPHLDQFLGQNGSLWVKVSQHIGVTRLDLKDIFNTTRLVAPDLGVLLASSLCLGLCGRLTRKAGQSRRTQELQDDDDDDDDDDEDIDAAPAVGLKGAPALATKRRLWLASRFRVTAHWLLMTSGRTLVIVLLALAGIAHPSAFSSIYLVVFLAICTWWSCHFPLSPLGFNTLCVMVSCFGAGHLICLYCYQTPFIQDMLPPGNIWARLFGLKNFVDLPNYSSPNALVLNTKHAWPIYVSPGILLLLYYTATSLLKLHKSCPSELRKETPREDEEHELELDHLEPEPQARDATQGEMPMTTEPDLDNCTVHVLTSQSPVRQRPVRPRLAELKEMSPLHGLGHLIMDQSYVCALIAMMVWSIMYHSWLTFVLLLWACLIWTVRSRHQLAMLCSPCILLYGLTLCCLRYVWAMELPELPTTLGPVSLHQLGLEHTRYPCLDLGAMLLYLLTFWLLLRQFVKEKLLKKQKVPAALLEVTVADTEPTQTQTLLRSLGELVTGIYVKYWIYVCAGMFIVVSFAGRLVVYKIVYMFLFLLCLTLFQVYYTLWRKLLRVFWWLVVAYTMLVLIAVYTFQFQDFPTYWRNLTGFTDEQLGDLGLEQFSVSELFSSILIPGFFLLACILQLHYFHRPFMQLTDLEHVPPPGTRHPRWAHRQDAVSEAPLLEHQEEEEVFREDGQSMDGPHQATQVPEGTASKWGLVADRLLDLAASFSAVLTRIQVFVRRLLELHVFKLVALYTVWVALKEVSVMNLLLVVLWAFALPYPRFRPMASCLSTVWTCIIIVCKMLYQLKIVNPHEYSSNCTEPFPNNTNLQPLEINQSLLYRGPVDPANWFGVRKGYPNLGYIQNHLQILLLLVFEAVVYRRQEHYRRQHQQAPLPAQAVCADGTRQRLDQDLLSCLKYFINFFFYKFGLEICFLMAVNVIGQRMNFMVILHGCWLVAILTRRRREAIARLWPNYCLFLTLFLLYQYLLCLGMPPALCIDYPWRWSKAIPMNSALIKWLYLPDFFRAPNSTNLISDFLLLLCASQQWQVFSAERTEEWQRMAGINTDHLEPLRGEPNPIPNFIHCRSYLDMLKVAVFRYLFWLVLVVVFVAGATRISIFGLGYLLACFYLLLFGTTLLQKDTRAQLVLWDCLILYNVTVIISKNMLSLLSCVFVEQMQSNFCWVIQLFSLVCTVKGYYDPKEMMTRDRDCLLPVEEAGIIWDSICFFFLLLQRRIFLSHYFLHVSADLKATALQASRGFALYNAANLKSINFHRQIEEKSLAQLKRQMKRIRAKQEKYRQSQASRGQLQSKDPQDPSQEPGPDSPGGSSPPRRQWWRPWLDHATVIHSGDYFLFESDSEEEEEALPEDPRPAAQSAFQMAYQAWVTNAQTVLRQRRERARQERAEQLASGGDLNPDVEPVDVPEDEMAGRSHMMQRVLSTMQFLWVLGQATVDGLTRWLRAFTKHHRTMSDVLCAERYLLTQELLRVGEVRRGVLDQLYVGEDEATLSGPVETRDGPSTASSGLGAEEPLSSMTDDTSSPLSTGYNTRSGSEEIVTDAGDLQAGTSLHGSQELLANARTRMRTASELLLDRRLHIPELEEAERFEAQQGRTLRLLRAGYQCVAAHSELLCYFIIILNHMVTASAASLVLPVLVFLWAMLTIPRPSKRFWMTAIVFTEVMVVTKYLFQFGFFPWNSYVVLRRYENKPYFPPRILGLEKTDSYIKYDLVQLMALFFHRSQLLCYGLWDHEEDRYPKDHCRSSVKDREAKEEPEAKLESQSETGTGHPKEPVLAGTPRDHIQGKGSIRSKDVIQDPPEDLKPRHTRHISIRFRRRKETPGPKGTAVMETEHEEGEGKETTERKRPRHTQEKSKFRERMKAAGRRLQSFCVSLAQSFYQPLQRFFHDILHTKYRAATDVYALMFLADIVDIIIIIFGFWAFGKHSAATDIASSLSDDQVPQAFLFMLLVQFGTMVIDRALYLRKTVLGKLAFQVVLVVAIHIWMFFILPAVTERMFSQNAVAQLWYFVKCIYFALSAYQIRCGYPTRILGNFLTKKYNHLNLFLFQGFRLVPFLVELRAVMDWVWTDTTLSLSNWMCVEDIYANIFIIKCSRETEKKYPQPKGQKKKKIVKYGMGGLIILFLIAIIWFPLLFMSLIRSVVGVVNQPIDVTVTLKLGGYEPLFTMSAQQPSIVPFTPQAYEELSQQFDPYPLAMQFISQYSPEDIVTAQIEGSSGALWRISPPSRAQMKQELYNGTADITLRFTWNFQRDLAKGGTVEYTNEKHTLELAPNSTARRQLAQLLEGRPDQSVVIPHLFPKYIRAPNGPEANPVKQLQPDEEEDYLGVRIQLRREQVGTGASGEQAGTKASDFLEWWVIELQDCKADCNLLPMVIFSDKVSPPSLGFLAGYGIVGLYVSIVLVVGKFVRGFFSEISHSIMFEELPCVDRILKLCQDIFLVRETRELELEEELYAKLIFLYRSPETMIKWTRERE

Structure (SMILES) | Effect on M-Stim-evoked currents ([1]; 10 μM) | Cells responding to activation [1] | Sustained component of current as % of the peak current amplitude ([1]; 10 μM, mPIEZO1 cells, mean ± SD) [%] | EC50 ([1]; mouse PIEZO1, normalised peak current, maximum response not certain, read-out: EC50 (estimate)) [nM] | Ca2+ elevations in cells overexpressing mPIEZO2 [2]
O=C(O)c1ccccc1-c1nnc(SCc2c(Cl)cccc2Cl)s1 [KC157] | mostly fails to evoke responses | largely ineffective | – | – | –
O=C(O)c1ccc(-c2nnc(SCc3c(Cl)cccc3Cl)s2)cc1 [KC159] | greatly amplifies the currents | more cells to respond compared with Yoda1 | 26 ± 8 | ~1540 | not different from background signals in non‐transfected cells
O=C([O-])c1ccc(-c2nnc(SCc3c(Cl)cccc3Cl)s2)cc1.[K+] [KC289] | – | – | – | – | not different from background signals in non‐transfected cells

— publication PMC10952572, “Improved PIEZO1 agonism through 4‐benzoic acid modification of Yoda1” (British Journal of Pharmacology, 2023)
